ChEMBL document CHEMBL3132747, “Design and synthesis of a novel series of N,4-diphenylpyrimidin-2-amine derivatives as potent and selective PI3K inhibitors” (Medchemcomm, 2014)

target: Cyclin-dependent kinase 2 (Homo sapiens, UniProt P24941); assay: Inhibition of CDK2 (unknown origin); settings: not given

IC50 [µM]	Structure (SMILES)
18.8	COc1cc(Nc2nccc(-c3ccc(Cl)cc3)n2)cc(OC)c1OC

system: A549; assay: Induction of apoptosis in human A549 cells assessed as apoptotic cells at 16 uM after 48 hrs using annexin V and propidium iodide staining by flow cytometry (reference value: 5.37 %); type: functional; settings: not given

Structure (SMILES)	Activity [%]
COc1cc(Nc2nccc(-c3ccc(Cl)cc3)n2)cc(OC)c1OC	13.5

system: A549; assay: Anticancer activity against human A549 cells by MTT assay; type: functional, cell-based; settings: not given

Structure (SMILES)	IC50 [µM]
Clc1ccc(Nc2nccc(-c3ccc(Br)cc3)n2)cc1	6.11
O=[N+]([O-])c1ccc(Nc2nccc(-c3ccc(Cl)c(Cl)c3)n2)cc1	0.72
Clc1ccc(Nc2nccc(-c3ccc(Cl)cc3Cl)n2)c(Cl)c1	11.6
COc1ccc(-c2ccnc(Nc3cccc(OC)c3)n2)cc1	6.53

The remaining compounds from weak to strong by IC50, led by results:

IC50 [µM]	Structure (SMILES)
164	Cc1ccc(-c2ccnc(Nc3ccc(Cl)cc3Cl)n2)cc1
84	O=[N+]([O-])c1ccc(Nc2nccc(-c3ccc(F)cc3)n2)cc1
76	O=[N+]([O-])c1ccc(Nc2nccc(-c3ccc(Br)cc3)n2)cc1
20.9	COc1ccc(-c2ccnc(Nc3ccc(Cl)cc3)n2)cc1
6	COc1cccc(Nc2nccc(-c3ccc(Cl)c(Cl)c3)n2)c1
3.78	Clc1ccc(Nc2nccc(-c3ccc(Br)cc3)n2)c(Cl)c1
0.36	COc1cc(Nc2nccc(-c3ccc(Cl)cc3)n2)cc(OC)c1OC

target: Tyrosine-protein kinase JAK2 (Homo sapiens, UniProt O60674); assay: Inhibition of JAK2 (unknown origin); settings: not given

IC50 [µM]	Structure (SMILES)
21.5	COc1cc(Nc2nccc(-c3ccc(Cl)cc3)n2)cc(OC)c1OC

system: MCF7; assay: Anticancer activity against human MCF7 cells by MTT assay; type: functional, cell-based; settings: not given

Structure (SMILES)	IC50 [µM]
Clc1ccc(Nc2nccc(-c3ccc(Br)cc3)n2)cc1	4.18
O=[N+]([O-])c1ccc(Nc2nccc(-c3ccc(Cl)c(Cl)c3)n2)cc1	3.51
Clc1ccc(Nc2nccc(-c3ccc(Cl)cc3Cl)n2)c(Cl)c1	3.18
COc1ccc(-c2ccnc(Nc3cccc(OC)c3)n2)cc1	3.45

Results, then the compound that gave them:

IC50 [µM]	Structure (SMILES)
> 1000	Cc1ccc(-c2ccnc(Nc3ccc(Cl)cc3Cl)n2)cc1
0.4	O=[N+]([O-])c1ccc(Nc2nccc(-c3ccc(F)cc3)n2)cc1
681	O=[N+]([O-])c1ccc(Nc2nccc(-c3ccc(Br)cc3)n2)cc1
0.81	COc1ccc(-c2ccnc(Nc3ccc(Cl)cc3)n2)cc1
21	COc1cccc(Nc2nccc(-c3ccc(Cl)c(Cl)c3)n2)c1
2.49	Clc1ccc(Nc2nccc(-c3ccc(Br)cc3)n2)c(Cl)c1
3.15	COc1cc(Nc2nccc(-c3ccc(Cl)cc3)n2)cc(OC)c1OC

system: A549; assay: Induction of apoptosis in human A549 cells assessed as late apoptotic cells at 4 uM after 48 hrs using annexin V and propidium iodide staining by flow cytometry (reference value: 9.79 %); type: functional; settings: not given

Structure (SMILES)	Activity [%]
COc1cc(Nc2nccc(-c3ccc(Cl)cc3)n2)cc(OC)c1OC	32.8

system: HepG2; assay: Anticancer activity against human HepG2 cells by MTT assay; type: functional, cell-based; settings: not given

Structure (SMILES)	IC50 [µM]
Clc1ccc(Nc2nccc(-c3ccc(Br)cc3)n2)cc1	47.5
O=[N+]([O-])c1ccc(Nc2nccc(-c3ccc(Cl)c(Cl)c3)n2)cc1	0.5
Clc1ccc(Nc2nccc(-c3ccc(Cl)cc3Cl)n2)c(Cl)c1	8.08
COc1ccc(-c2ccnc(Nc3cccc(OC)c3)n2)cc1	13.9

Results, then the compound that gave them:

IC50 [µM]	Structure (SMILES)
344	Cc1ccc(-c2ccnc(Nc3ccc(Cl)cc3Cl)n2)cc1
7.95	O=[N+]([O-])c1ccc(Nc2nccc(-c3ccc(F)cc3)n2)cc1
43	O=[N+]([O-])c1ccc(Nc2nccc(-c3ccc(Br)cc3)n2)cc1
4.5	COc1ccc(-c2ccnc(Nc3ccc(Cl)cc3)n2)cc1
3.37	COc1cccc(Nc2nccc(-c3ccc(Cl)c(Cl)c3)n2)c1
0.72	Clc1ccc(Nc2nccc(-c3ccc(Br)cc3)n2)c(Cl)c1
0.09	COc1cc(Nc2nccc(-c3ccc(Cl)cc3)n2)cc(OC)c1OC

target: Phosphatidylinositol 4,5-bisphosphate 3-kinase catalytic subunit alpha isoform (Homo sapiens, UniProt P42336); assay: Inhibition of human PI3Kalpha; settings: not given
Sequence (P42336 whole entry, canonical isoform): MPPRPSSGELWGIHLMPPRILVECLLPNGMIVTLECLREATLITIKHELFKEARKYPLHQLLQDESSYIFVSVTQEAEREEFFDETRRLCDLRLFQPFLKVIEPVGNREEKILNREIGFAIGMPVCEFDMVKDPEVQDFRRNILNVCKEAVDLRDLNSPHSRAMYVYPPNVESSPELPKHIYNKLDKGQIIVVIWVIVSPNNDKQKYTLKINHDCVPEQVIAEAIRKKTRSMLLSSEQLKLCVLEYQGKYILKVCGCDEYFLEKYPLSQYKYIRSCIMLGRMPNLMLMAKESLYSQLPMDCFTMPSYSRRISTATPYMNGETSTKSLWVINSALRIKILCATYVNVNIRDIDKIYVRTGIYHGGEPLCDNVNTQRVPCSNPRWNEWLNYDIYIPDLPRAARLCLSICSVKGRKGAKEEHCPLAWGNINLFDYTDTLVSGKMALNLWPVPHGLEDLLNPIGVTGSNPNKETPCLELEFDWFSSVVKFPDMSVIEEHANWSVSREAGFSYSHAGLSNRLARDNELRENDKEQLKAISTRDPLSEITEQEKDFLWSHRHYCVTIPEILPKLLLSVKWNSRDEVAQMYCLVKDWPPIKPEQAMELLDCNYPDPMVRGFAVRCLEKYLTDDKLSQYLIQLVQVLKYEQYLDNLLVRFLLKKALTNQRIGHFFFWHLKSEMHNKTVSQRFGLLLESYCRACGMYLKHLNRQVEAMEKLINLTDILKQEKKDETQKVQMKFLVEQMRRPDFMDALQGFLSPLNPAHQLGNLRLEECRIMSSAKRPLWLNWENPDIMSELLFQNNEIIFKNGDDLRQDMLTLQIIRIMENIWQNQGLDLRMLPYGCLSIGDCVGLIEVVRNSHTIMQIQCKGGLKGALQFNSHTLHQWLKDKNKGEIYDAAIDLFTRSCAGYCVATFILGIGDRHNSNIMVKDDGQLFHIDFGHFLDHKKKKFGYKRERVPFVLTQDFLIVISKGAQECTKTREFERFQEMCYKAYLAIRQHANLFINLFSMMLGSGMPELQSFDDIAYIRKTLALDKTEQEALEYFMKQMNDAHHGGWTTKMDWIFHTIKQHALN

Structure (SMILES)	IC50 [µM]
Clc1ccc(Nc2nccc(-c3ccc(Br)cc3)n2)cc1	0.914
O=[N+]([O-])c1ccc(Nc2nccc(-c3ccc(Cl)c(Cl)c3)n2)cc1	0.503
Clc1ccc(Nc2nccc(-c3ccc(Cl)cc3Cl)n2)c(Cl)c1	0.772
COc1ccc(-c2ccnc(Nc3cccc(OC)c3)n2)cc1	0.615

Further lines, results first:

IC50 [µM]	Structure (SMILES)
> 1	Cc1ccc(-c2ccnc(Nc3ccc(Cl)cc3Cl)n2)cc1
0.679	O=[N+]([O-])c1ccc(Nc2nccc(-c3ccc(F)cc3)n2)cc1
0.946	O=[N+]([O-])c1ccc(Nc2nccc(-c3ccc(Br)cc3)n2)cc1
0.552	COc1ccc(-c2ccnc(Nc3ccc(Cl)cc3)n2)cc1
0.625	COc1cccc(Nc2nccc(-c3ccc(Cl)c(Cl)c3)n2)c1
0.591	Clc1ccc(Nc2nccc(-c3ccc(Br)cc3)n2)c(Cl)c1
0.341	COc1cc(Nc2nccc(-c3ccc(Cl)cc3)n2)cc(OC)c1OC

system: A549; assay: Induction of apoptosis in human A549 cells assessed as late apoptotic cells at 16 uM after 48 hrs using annexin V and propidium iodide staining by flow cytometry (reference value: 9.79 %); type: functional; settings: not given

Structure (SMILES)	Activity [%]
COc1cc(Nc2nccc(-c3ccc(Cl)cc3)n2)cc(OC)c1OC	39.4

system: A549; assay: Induction of apoptosis in human A549 cells assessed as viable cells at 16 uM after 48 hrs using annexin V and propidium iodide staining by flow cytometry (reference value: 78.8 %); type: functional; settings: A549, 48 h, read-out: Activity

Structure (SMILES)	viability at 16 µM [%]
COc1cc(Nc2nccc(-c3ccc(Cl)cc3)n2)cc(OC)c1OC	44.9

target: Epidermal growth factor receptor (Homo sapiens, UniProt P00533); assay: Inhibition of EGFR (unknown origin); settings: not given
Sequence (P00533 whole entry): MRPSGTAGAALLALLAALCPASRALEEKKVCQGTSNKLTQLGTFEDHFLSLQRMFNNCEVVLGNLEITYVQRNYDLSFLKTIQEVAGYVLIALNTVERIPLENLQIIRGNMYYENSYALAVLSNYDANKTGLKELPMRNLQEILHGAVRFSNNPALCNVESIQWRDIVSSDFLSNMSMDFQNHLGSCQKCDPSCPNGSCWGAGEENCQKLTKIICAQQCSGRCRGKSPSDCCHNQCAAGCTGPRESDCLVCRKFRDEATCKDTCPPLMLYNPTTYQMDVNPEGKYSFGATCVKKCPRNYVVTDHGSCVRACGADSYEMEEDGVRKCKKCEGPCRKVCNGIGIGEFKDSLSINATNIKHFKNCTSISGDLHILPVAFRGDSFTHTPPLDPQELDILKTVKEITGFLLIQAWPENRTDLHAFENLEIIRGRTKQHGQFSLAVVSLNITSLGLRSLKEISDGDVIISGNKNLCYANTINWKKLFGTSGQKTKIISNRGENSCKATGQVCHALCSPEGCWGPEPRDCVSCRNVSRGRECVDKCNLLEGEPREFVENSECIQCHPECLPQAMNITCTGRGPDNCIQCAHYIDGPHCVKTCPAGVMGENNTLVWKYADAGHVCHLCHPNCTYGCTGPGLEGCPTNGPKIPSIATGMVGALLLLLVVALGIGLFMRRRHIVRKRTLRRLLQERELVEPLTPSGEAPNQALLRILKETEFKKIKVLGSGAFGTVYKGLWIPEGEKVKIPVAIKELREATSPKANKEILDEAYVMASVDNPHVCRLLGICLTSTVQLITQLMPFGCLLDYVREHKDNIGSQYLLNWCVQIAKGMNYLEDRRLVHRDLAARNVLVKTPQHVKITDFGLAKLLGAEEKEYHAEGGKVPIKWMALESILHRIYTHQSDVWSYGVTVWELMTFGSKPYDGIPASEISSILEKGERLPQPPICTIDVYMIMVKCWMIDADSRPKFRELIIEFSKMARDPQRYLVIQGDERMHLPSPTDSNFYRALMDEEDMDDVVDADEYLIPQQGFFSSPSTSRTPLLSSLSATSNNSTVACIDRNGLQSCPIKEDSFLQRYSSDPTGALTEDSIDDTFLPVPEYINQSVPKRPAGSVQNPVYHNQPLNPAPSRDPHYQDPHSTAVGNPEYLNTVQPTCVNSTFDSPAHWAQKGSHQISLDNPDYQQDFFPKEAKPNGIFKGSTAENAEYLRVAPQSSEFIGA

IC50 [µM]	Structure (SMILES)
2.15	COc1cc(Nc2nccc(-c3ccc(Cl)cc3)n2)cc(OC)c1OC

system: A549; assay: Induction of apoptosis in human A549 cells assessed as apoptotic cells at 1 uM after 48 hrs using annexin V and propidium iodide staining by flow cytometry (reference value: 5.37 %); type: functional; settings: not given

Structure (SMILES)	Activity [%]
COc1cc(Nc2nccc(-c3ccc(Cl)cc3)n2)cc(OC)c1OC	8.47

system: A549; assay: Induction of apoptosis in human A549 cells assessed as viable cells at 1 uM after 48 hrs using annexin V and propidium iodide staining by flow cytometry (reference value: 78.8 %); type: functional; settings: A549, 48 h, read-out: Activity

Structure (SMILES)	viability at 1 µM [%]
COc1cc(Nc2nccc(-c3ccc(Cl)cc3)n2)cc(OC)c1OC	62.9

system: HeLa; assay: Anticancer activity against human HeLa cells by MTT assay; type: functional, cell-based; settings: not given

Structure (SMILES)	IC50 [µM]
Clc1ccc(Nc2nccc(-c3ccc(Br)cc3)n2)cc1	36.7
O=[N+]([O-])c1ccc(Nc2nccc(-c3ccc(Cl)c(Cl)c3)n2)cc1	1.84
Clc1ccc(Nc2nccc(-c3ccc(Cl)cc3Cl)n2)c(Cl)c1	1.56
COc1ccc(-c2ccnc(Nc3cccc(OC)c3)n2)cc1	0.55

Next, values leading:

IC50 [µM]	Structure (SMILES)
91.5	Cc1ccc(-c2ccnc(Nc3ccc(Cl)cc3Cl)n2)cc1
3.51	O=[N+]([O-])c1ccc(Nc2nccc(-c3ccc(F)cc3)n2)cc1
25.7	O=[N+]([O-])c1ccc(Nc2nccc(-c3ccc(Br)cc3)n2)cc1
0.31	COc1ccc(-c2ccnc(Nc3ccc(Cl)cc3)n2)cc1
4.97	COc1cccc(Nc2nccc(-c3ccc(Cl)c(Cl)c3)n2)c1
1.08	Clc1ccc(Nc2nccc(-c3ccc(Br)cc3)n2)c(Cl)c1
0.29	COc1cc(Nc2nccc(-c3ccc(Cl)cc3)n2)cc(OC)c1OC

system: A549; assay: Induction of apoptosis in human A549 cells assessed as viable cells at 4 uM after 48 hrs using annexin V and propidium iodide staining by flow cytometry (reference value: 78.8 %); type: functional; settings: A549, 48 h, read-out: Activity

Structure (SMILES)	viability at 4 µM [%]
COc1cc(Nc2nccc(-c3ccc(Cl)cc3)n2)cc(OC)c1OC	56.1

target: Phosphatidylinositol 4,5-bisphosphate 3-kinase catalytic subunit gamma isoform (Homo sapiens, UniProt P48736); assay: Inhibition of human PI3Kgamma; settings: read-out: IC50
Sequence (P48736 whole entry, canonical isoform): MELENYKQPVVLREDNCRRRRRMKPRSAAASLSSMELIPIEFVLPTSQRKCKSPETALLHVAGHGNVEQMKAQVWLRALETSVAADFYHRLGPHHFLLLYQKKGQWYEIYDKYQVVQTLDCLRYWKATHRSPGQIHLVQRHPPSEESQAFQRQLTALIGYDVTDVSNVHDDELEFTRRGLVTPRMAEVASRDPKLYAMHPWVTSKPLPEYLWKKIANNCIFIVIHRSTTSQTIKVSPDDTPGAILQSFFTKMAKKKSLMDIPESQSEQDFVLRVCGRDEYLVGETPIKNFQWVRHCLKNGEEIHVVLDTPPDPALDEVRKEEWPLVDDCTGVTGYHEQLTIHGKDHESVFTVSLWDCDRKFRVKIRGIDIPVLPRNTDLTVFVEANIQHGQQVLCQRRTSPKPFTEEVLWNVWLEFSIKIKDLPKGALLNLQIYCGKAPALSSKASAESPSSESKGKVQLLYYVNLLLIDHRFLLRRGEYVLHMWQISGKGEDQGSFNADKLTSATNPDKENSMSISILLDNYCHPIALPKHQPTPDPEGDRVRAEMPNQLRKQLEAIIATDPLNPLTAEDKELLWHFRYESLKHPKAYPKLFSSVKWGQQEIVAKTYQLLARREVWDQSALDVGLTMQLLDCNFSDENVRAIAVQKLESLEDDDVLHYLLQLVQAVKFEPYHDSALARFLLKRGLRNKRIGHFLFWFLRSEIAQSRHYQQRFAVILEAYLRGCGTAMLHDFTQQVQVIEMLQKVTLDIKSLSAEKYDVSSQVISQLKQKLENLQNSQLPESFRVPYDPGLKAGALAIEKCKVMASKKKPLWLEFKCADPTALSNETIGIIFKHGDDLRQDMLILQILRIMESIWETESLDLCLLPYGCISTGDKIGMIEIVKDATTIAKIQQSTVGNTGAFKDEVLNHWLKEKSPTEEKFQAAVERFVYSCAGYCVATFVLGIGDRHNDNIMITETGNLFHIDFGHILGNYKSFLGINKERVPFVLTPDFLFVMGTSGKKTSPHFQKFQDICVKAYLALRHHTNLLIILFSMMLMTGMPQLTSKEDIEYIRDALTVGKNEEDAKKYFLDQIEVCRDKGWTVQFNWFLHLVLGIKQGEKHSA

Structure (SMILES)	IC50 [µM]
Clc1ccc(Nc2nccc(-c3ccc(Br)cc3)n2)cc1	0.302
O=[N+]([O-])c1ccc(Nc2nccc(-c3ccc(Cl)c(Cl)c3)n2)cc1	0.154
Clc1ccc(Nc2nccc(-c3ccc(Cl)cc3Cl)n2)c(Cl)c1	0.268
COc1ccc(-c2ccnc(Nc3cccc(OC)c3)n2)cc1	0.195

Next, values leading:

IC50 [µM]	Structure (SMILES)
0.371	Cc1ccc(-c2ccnc(Nc3ccc(Cl)cc3Cl)n2)cc1
0.247	O=[N+]([O-])c1ccc(Nc2nccc(-c3ccc(F)cc3)n2)cc1
0.265	O=[N+]([O-])c1ccc(Nc2nccc(-c3ccc(Br)cc3)n2)cc1
0.167	COc1ccc(-c2ccnc(Nc3ccc(Cl)cc3)n2)cc1
0.217	COc1cccc(Nc2nccc(-c3ccc(Cl)c(Cl)c3)n2)c1
0.231	Clc1ccc(Nc2nccc(-c3ccc(Br)cc3)n2)c(Cl)c1
≤ 0.065	COc1cc(Nc2nccc(-c3ccc(Cl)cc3)n2)cc(OC)c1OC

same assay, conditions: read-out: pIC50 (converted)

Structure (SMILES)	IC50 [µM]
Clc1ccc(Nc2nccc(-c3ccc(Br)cc3)n2)cc1	0.302
O=[N+]([O-])c1ccc(Nc2nccc(-c3ccc(Cl)c(Cl)c3)n2)cc1	0.154
Clc1ccc(Nc2nccc(-c3ccc(Cl)cc3Cl)n2)c(Cl)c1	0.268
COc1ccc(-c2ccnc(Nc3cccc(OC)c3)n2)cc1	0.195

Continued, values first:

IC50 [µM]	Structure (SMILES)
0.371	Cc1ccc(-c2ccnc(Nc3ccc(Cl)cc3Cl)n2)cc1
0.247	O=[N+]([O-])c1ccc(Nc2nccc(-c3ccc(F)cc3)n2)cc1
0.265	O=[N+]([O-])c1ccc(Nc2nccc(-c3ccc(Br)cc3)n2)cc1
0.167	COc1ccc(-c2ccnc(Nc3ccc(Cl)cc3)n2)cc1
0.217	COc1cccc(Nc2nccc(-c3ccc(Cl)c(Cl)c3)n2)c1
0.231	Clc1ccc(Nc2nccc(-c3ccc(Br)cc3)n2)c(Cl)c1

system: A549; assay: Induction of apoptosis in human A549 cells assessed as late necrotic cells at 16 uM after 48 hrs using annexin V and propidium iodide staining by flow cytometry (reference value: 6.00 %); type: functional; settings: not given

Structure (SMILES)	Activity [%]
COc1cc(Nc2nccc(-c3ccc(Cl)cc3)n2)cc(OC)c1OC	2.19

system: A549; assay: Induction of apoptosis in human A549 cells assessed as late apoptotic cells at 1 uM after 48 hrs using annexin V and propidium iodide staining by flow cytometry (reference value: 9.79 %); type: functional; settings: not given

Structure (SMILES)	Activity [%]
COc1cc(Nc2nccc(-c3ccc(Cl)cc3)n2)cc(OC)c1OC	25

system: A549; assay: Induction of apoptosis in human A549 cells assessed as apoptotic cells at 4 uM after 48 hrs using annexin V and propidium iodide staining by flow cytometry (reference value: 5.37 %); type: functional; settings: not given

Structure (SMILES)	Activity [%]
COc1cc(Nc2nccc(-c3ccc(Cl)cc3)n2)cc(OC)c1OC	6.53

system: A549; assay: Induction of apoptosis in human A549 cells assessed as late necrotic cells at 1 uM after 48 hrs using annexin V and propidium iodide staining by flow cytometry (reference value: 6.00 %); type: functional; settings: not given

Structure (SMILES)	Activity [%]
COc1cc(Nc2nccc(-c3ccc(Cl)cc3)n2)cc(OC)c1OC	3.66

target: Phosphatidylinositol 4,5-bisphosphate 3-kinase catalytic subunit beta isoform (Homo sapiens, UniProt P42338); assay: Inhibition of human PI3Kbeta; settings: not given
Sequence (P42338 whole entry, canonical isoform): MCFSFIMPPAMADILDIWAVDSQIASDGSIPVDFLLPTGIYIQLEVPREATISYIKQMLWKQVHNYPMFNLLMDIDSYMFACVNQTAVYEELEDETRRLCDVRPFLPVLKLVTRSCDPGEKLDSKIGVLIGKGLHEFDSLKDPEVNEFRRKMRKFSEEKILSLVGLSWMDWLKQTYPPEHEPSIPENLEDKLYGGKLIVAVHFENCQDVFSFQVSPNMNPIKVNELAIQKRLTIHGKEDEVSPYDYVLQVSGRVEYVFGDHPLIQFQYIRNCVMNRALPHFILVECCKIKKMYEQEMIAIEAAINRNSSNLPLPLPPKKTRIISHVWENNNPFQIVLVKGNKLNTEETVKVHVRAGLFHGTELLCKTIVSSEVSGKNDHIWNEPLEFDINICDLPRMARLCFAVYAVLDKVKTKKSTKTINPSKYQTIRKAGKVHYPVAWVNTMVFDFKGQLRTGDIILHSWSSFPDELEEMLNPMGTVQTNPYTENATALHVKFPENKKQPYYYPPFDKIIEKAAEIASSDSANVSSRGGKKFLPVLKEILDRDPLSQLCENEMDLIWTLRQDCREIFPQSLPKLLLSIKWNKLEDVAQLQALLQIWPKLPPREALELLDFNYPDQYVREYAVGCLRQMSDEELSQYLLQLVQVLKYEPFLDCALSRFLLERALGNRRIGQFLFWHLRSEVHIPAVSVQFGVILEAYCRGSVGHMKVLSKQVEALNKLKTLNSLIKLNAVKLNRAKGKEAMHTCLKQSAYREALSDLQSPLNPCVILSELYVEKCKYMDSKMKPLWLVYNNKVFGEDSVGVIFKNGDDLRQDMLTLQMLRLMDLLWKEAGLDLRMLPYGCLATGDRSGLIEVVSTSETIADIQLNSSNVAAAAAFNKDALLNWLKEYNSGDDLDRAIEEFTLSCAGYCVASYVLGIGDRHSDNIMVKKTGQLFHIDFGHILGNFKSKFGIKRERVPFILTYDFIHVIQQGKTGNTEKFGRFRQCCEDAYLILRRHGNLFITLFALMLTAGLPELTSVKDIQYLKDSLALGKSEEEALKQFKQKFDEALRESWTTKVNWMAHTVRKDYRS

Structure (SMILES)	IC50 [µM]
Clc1ccc(Nc2nccc(-c3ccc(Br)cc3)n2)cc1	0.946
O=[N+]([O-])c1ccc(Nc2nccc(-c3ccc(Cl)c(Cl)c3)n2)cc1	0.573
Clc1ccc(Nc2nccc(-c3ccc(Cl)cc3Cl)n2)c(Cl)c1	0.799
COc1ccc(-c2ccnc(Nc3cccc(OC)c3)n2)cc1	0.729

More lines, now with the values ahead:

IC50 [µM]	Structure (SMILES)
> 1	Cc1ccc(-c2ccnc(Nc3ccc(Cl)cc3Cl)n2)cc1
0.863	O=[N+]([O-])c1ccc(Nc2nccc(-c3ccc(F)cc3)n2)cc1
0.961	O=[N+]([O-])c1ccc(Nc2nccc(-c3ccc(Br)cc3)n2)cc1
0.603	COc1ccc(-c2ccnc(Nc3ccc(Cl)cc3)n2)cc1
0.741	COc1cccc(Nc2nccc(-c3ccc(Cl)c(Cl)c3)n2)c1
0.673	Clc1ccc(Nc2nccc(-c3ccc(Br)cc3)n2)c(Cl)c1
0.373	COc1cc(Nc2nccc(-c3ccc(Cl)cc3)n2)cc(OC)c1OC

system: A549; assay: Induction of apoptosis in human A549 cells assessed as late necrotic cells at 4 uM after 48 hrs using annexin V and propidium iodide staining by flow cytometry (reference value: 6.00 %); type: functional; settings: not given

Structure (SMILES)	Activity [%]
COc1cc(Nc2nccc(-c3ccc(Cl)cc3)n2)cc(OC)c1OC	4.62
